Test: xn = mol fraction of the nth substance listed

ClC(Cl)Cl + CC(C)=O
Conditions | viscosity [mPa·s]
293.15 K, 101 kPa, x1 = 0.157 | 0.3875
293.15 K, 101 kPa, x1 = 0.362 | 0.466
293.15 K, 101 kPa, x1 = 0.483 | 0.511
293.15 K, 101 kPa, x1 = 0.609 | 0.5471
293.15 K, 101 kPa, x1 = 0.824 | 0.5836
293.15 K, 101 kPa, x2 = 0.112 | 0.565
293.15 K, 101 kPa, x2 = 0.2 | 0.561
293.15 K, 101 kPa, x2 = 0.3098 | 0.543
293.15 K, 101 kPa, x2 = 0.415 | 0.523
293.15 K, 101 kPa, x2 = 0.502 | 0.495
293.15 K, 101 kPa, x2 = 0.6075 | 0.456
293.15 K, 101 kPa, x2 = 0.715 | 0.421
293.15 K, 101 kPa, x2 = 0.81 | 0.384
293.15 K, 101 kPa, x2 = 0.9075 | 0.349
293.15 K, 101.33 kPa, x1 = 0.1193 | 0.357
293.15 K, 101.33 kPa, x1 = 0.2623 | 0.408
293.15 K, 101.33 kPa, x1 = 0.3723 | 0.453
293.15 K, 101.33 kPa, x1 = 0.5128 | 0.508
293.15 K, 101.33 kPa, x1 = 0.6064 | 0.538
293.15 K, 101.33 kPa, x1 = 0.7001 | 0.56
293.15 K, 101.33 kPa, x1 = 0.8577 | 0.583
293.16 K, 101 kPa, x1 = 0.1193 | 0.357
293.16 K, 101 kPa, x1 = 0.2623 | 0.408
293.16 K, 101 kPa, x1 = 0.3723 | 0.453
293.16 K, 101 kPa, x1 = 0.5128 | 0.508
293.16 K, 101 kPa, x1 = 0.6064 | 0.538
293.16 K, 101 kPa, x1 = 0.7001 | 0.56
293.16 K, 101 kPa, x1 = 0.8577 | 0.583
293.35 K, 101 kPa, x1 = 0.75 | 0.6037
293.45 K, 101 kPa, x1 = 0.5 | 0.5307
298.15 K, 101 kPa, x1 = 0.2 | 0.353
298.15 K, 101 kPa, x1 = 0.4 | 0.424
298.15 K, 101 kPa, x1 = 0.6 | 0.486
298.15 K, 101 kPa, x1 = 0.8 | 0.512
298.15 K, 101 kPa, x2 = 0.0555 | 0.5334
298.15 K, 101 kPa, x2 = 0.112 | 0.538
298.15 K, 101 kPa, x2 = 0.1361 | 0.5423
298.15 K, 101 kPa, x2 = 0.2 | 0.534
298.15 K, 101 kPa, x2 = 0.2192 | 0.5338
298.15 K, 101 kPa, x2 = 0.2437 | 0.536
298.15 K, 101 kPa, x2 = 0.3023 | 0.5258
298.15 K, 101 kPa, x2 = 0.3098 | 0.516
298.15 K, 101 kPa, x2 = 0.3737 | 0.508
298.15 K, 101 kPa, x2 = 0.415 | 0.495
298.15 K, 101 kPa, x2 = 0.4585 | 0.4864
298.15 K, 101 kPa, x2 = 0.496 | 0.4726
298.15 K, 101 kPa, x2 = 0.502 | 0.47
298.15 K, 101 kPa, x2 = 0.552 | 0.4529
298.15 K, 101 kPa, x2 = 0.5688 | 0.4495
298.15 K, 101 kPa, x2 = 0.6075 | 0.434
298.15 K, 101 kPa, x2 = 0.6721 | 0.411
298.15 K, 101 kPa, x2 = 0.6793 | 0.4052
298.15 K, 101 kPa, x2 = 0.6886 | 0.4042
298.15 K, 101 kPa, x2 = 0.715 | 0.402
298.15 K, 101 kPa, x2 = 0.7302 | 0.3926
298.15 K, 101 kPa, x2 = 0.7676 | 0.3817
298.15 K, 101 kPa, x2 = 0.8067 | 0.3628
298.15 K, 101 kPa, x2 = 0.81 | 0.367
298.15 K, 101 kPa, x2 = 0.8196 | 0.3551
298.15 K, 101 kPa, x2 = 0.8757 | 0.3425
298.15 K, 101 kPa, x2 = 0.9075 | 0.334
298.15 K, 101 kPa, x2 = 0.9182 | 0.3261
298.15 K, 101 kPa, x2 = 0.9233 | 0.3206
298.15 K, 101 kPa, x2 = 0.963 | 0.3092
298.15 K, 101.33 kPa, x1 = 0.1483 | 0.356
298.15 K, 101.33 kPa, x1 = 0.2721 | 0.4
298.15 K, 101.33 kPa, x1 = 0.3885 | 0.445
298.15 K, 101.33 kPa, x1 = 0.4985 | 0.485
298.15 K, 101.33 kPa, x1 = 0.6363 | 0.527
298.15 K, 101.33 kPa, x1 = 0.7114 | 0.543
298.15 K, 101.33 kPa, x1 = 0.8834 | 0.557
298.16 K, 101 kPa, x1 = 0.1483 | 0.356
298.16 K, 101 kPa, x1 = 0.2721 | 0.4
298.16 K, 101 kPa, x1 = 0.3885 | 0.445
298.16 K, 101 kPa, x1 = 0.4985 | 0.485
298.16 K, 101 kPa, x1 = 0.6363 | 0.527
298.16 K, 101 kPa, x1 = 0.7114 | 0.543
298.16 K, 101 kPa, x1 = 0.8834 | 0.557
302.95 K, 101 kPa, x1 = 0.25 | 0.3982
303.15 K, 101 kPa, x2 = 0.112 | 0.512
303.15 K, 101 kPa, x2 = 0.2 | 0.507
303.15 K, 101 kPa, x2 = 0.3098 | 0.488
303.15 K, 101 kPa, x2 = 0.415 | 0.468
303.15 K, 101 kPa, x2 = 0.502 | 0.447
303.15 K, 101 kPa, x2 = 0.6075 | 0.412
303.15 K, 101 kPa, x2 = 0.715 | 0.383
303.15 K, 101 kPa, x2 = 0.81 | 0.35
303.15 K, 101 kPa, x2 = 0.9075 | 0.322
303.15 K, 101.33 kPa, x1 = 0.1041 | 0.326
303.15 K, 101.33 kPa, x1 = 0.1842 | 0.352
303.15 K, 101.33 kPa, x1 = 0.2689 | 0.381
303.15 K, 101.33 kPa, x1 = 0.3733 | 0.424
303.15 K, 101.33 kPa, x1 = 0.5487 | 0.488
303.15 K, 101.33 kPa, x1 = 0.6876 | 0.514
303.15 K, 101.33 kPa, x1 = 0.8278 | 0.54
303.16 K, 101 kPa, x1 = 0.1041 | 0.326
303.16 K, 101 kPa, x1 = 0.1842 | 0.352
303.16 K, 101 kPa, x1 = 0.2689 | 0.381
303.16 K, 101 kPa, x1 = 0.3733 | 0.424
303.16 K, 101 kPa, x1 = 0.5487 | 0.488
303.16 K, 101 kPa, x1 = 0.6876 | 0.514
303.16 K, 101 kPa, x1 = 0.8278 | 0.54
303.55 K, 101 kPa, x1 = 0.75 | 0.5427
303.65 K, 101 kPa, x1 = 0.5 | 0.4779
308.15 K, 101 kPa, x2 = 0.112 | 0.487
308.15 K, 101 kPa, x2 = 0.2 | 0.482
308.15 K, 101 kPa, x2 = 0.3098 | 0.467
308.15 K, 101 kPa, x2 = 0.415 | 0.446
308.15 K, 101 kPa, x2 = 0.502 | 0.426
308.15 K, 101 kPa, x2 = 0.6075 | 0.398
308.15 K, 101 kPa, x2 = 0.715 | 0.365
308.15 K, 101 kPa, x2 = 0.81 | 0.336
308.15 K, 101 kPa, x2 = 0.9075 | 0.312
311.65 K, 101 kPa, x1 = 0.75 | 0.5052
313.15 K, 101 kPa, x1 = 0.157 | 0.3324
313.15 K, 101 kPa, x1 = 0.25 | 0.366
313.15 K, 101 kPa, x1 = 0.362 | 0.394
313.15 K, 101 kPa, x1 = 0.483 | 0.4257
313.15 K, 101 kPa, x1 = 0.609 | 0.4577
313.15 K, 101 kPa, x1 = 0.824 | 0.4867
313.85 K, 101 kPa, x1 = 0.5 | 0.4341
321.65 K, 101 kPa, x1 = 0.75 | 0.4644

CCCCCCCCCC(=O)OC + CCCCO
viscosity [mPa·s], 100 kPa
Conditions | 293.15 K | 298.15 K | 303.15 K | 308.15 K | 313.15 K | 318.15 K | 323.15 K
x1 = 0.09981 | 2.423 | 2.148 | 1.914 | 1.709 | 1.538 | 1.386 | 1.254
x1 = 0.1 | – | 2.153 | 1.921 | 1.715 | 1.537 | 1.384 | –
x1 = 0.2 | – | 1.948 | 1.745 | 1.569 | 1.419 | – | –
x1 = 0.2003 | 2.159 | 1.939 | 1.74 | 1.566 | 1.418 | 1.287 | 1.173
x1 = 0.3 | – | 1.841 | 1.656 | 1.504 | 1.359 | – | –
x1 = 0.3001 | 2.041 | 1.827 | 1.646 | 1.489 | 1.353 | 1.235 | 1.13
x1 = 0.3993 | 1.973 | 1.773 | 1.602 | 1.454 | 1.326 | 1.214 | 1.116
x1 = 0.4 | – | 1.794 | 1.616 | 1.464 | 1.333 | – | –
x1 = 0.5 | – | 1.765 | 1.597 | 1.452 | 1.332 | – | –
x1 = 0.501 | 1.95 | 1.755 | 1.59 | 1.446 | 1.322 | 1.213 | 1.117
x1 = 0.6001 | – | 1.77 | 1.6 | 1.458 | 1.331 | – | –
x1 = 0.6002 | 1.944 | 1.751 | 1.589 | 1.448 | 1.325 | 1.218 | 1.124
x1 = 0.6999 | – | 1.779 | 1.613 | 1.471 | 1.347 | – | –
x1 = 0.7028 | 1.958 | 1.767 | 1.603 | 1.463 | 1.341 | 1.234 | 1.14
x1 = 0.7953 | 1.986 | 1.793 | 1.629 | 1.487 | 1.364 | 1.257 | 1.163
x1 = 0.7987 | – | 1.808 | 1.646 | 1.497 | 1.372 | – | –
x1 = 0.8967 | – | 1.846 | 1.678 | 1.532 | 1.407 | – | –
x1 = 0.8999 | 2.03 | 1.835 | 1.668 | 1.524 | 1.399 | 1.29 | 1.194

— the CheMixHub viscosity set
